The text below walks through data of publication PMC11511194, “Key Factors for Improving Predictive Accuracy and Avoiding Overparameterization of the PBPK Absorption Model in Food Effect Studies of Weakly Basic Water-Insoluble Compounds in Immediate Release Formulations” (Pharmaceutics, 2024).

The structures appear in SMILES notation. Where two headings read alike, the source gives them in different places.

Data set [1] in a line: Passive diffusion clearance and unbound fractions of permeability-limited kidney and liver models. The note with it: Liver, Fitted. From the text:
(§1) S2. PBPK model development and validation physicochemical parameters for these three model drugs, including protein binding and Blood-to-Plasma (B/P) ratio, were obtained from experimental results, while log P and pKa were estimated based on the molecular formula using Gastro Plus ADMET software (version 10.3, […]
(§2) S2.1. Rivaroxaban PBPK model development and validation
(§3) S2.1.1. Rivaroxaban PBPK model development for metabolism and elimination module […]
(§4) its systemic clearance, CLint_CYP3A4, CLint_CYP2J2 and CLHLM were fitted according to the metabolic fraction of rivaroxaban in vivo and concentration-time profiles from the SAD clinical trial in Caucasian subjects under fasted state. […]
(§5) permeability-limited kidney and liver models were employed to account for the active efflux […]
(§6) Physicochemical properties

Details of data set [2]: method as in earlier work. Particulars: optimized rivaroxaban model input, cited from earlier work.
In data set [3] the test system is CYP2J2. Nature of the data set: CYP2J2 intrinsic clearance fitted in PBPK model. Particulars: Fitted to in vivo metabolic fraction and SAD C-T profiles.
From the text: as §1, §2, §3, §4, §5, §6

A short description of data set [4]: Dissolution tests of formulations in biorelevant media (USP 2). Particulars: formulation, 500 and 900 mL FaSSIF or FeSSIF media. It counts as physicochemical. How it is done:
Dissolution tests employing biorelevant media have gained widespread utilization in formulation development, offering valuable insights into the behavior of APIs and their respective formulations within the GI tract. In this study, dissolution behavior was assessed using the calibrated USP 2 apparatus (Pion Scientific Instruments, Billerica, MA, USA) across various media, including FaSSGF, FaSSIF, and FeSSIF. The fasted gastric environment was simulated with 300 mL of FaSSGF medium, while FaSSIF and FeSSIF media were used to mimic the intestinal conditions under fasted and fed states, with volumes of 500 and 900 mL, respectively. Dissolution experiments were conducted at a paddle speed of 75 rpm, with the medium temperature maintained at 37 ± 0.5 °C. Sample concentrations were monitored at 1 min intervals via an in situ fiber-optic UV dissolution real-time monitoring system. All experiments were conducted in triplicate.

Data set [5] has as its system ABCB1 (P-gp/MDR1). Nature of the data set: P-gp efflux clearance in kidney and liver fitted in PBPK model. The note with it: human, permeability-limited liver model, Canalicular, read-out: CLint,T.
From the text: as §1, §2, §3, §4, §5, §6

The conditions of data set [6]: ticagrelor; supplement ref 17; cited from earlier work.

In data set [1], `O=C(NC[C@H]1CN(c2ccc(N3CCOCC3=O)cc2)C(=O)O1)c1ccc(Cl)s1` [Rivaroxaban] returned a fuIW of 0.193. In addition, the figures for the PAMPA in data set [2] (Fasted (FaSSIF)) and in data set [2] (Fed (FeSSIF)) were 52.6 10E-06 cm/s and 40.80 10E-06 cm/s, respectively. Besides, in data set [3], the “Intrinsic clearance of CYP 2J2” value was determined as 2.500 µL/min/pmol. Besides, in data set [4], the dissolution percentages result is listed as “below 80%”. Moreover, the hepatocyte CLint in data set [5] turned out to be 0.03 µL/min/1e6 cells.

In the case of `CCCSc1nc(N[C@@H]2C[C@H]2c2ccc(F)c(F)c2)c2nnn([C@@H]3C[C@H](OCCO)[C@@H](O)[C@H]3O)c2n1` [Ticagrelor], in data set [6], the “CLR typical renal clearance” value is 0.00584 L/h.
